Experimental data published in patent US20060100245A1, “Substituted biphenyl-4-carboxylic acid arylamide analogues” (Neurogen Corporation, priority 2002, published 2006).

Each compound was assayed against T1, human capsaicin receptor (VR1) (Homo sapiens, UniProt Q8NER1) (assay: Capsaicin receptor binding assay ([3H]RTX competition)). Conditions: read-out: Ki.
T1 construct: transfected with the pBK-CMV expression construct encoding the full length human capsaicin receptor; expressed in transfected cells
T1 sequence (Q8NER1 whole entry): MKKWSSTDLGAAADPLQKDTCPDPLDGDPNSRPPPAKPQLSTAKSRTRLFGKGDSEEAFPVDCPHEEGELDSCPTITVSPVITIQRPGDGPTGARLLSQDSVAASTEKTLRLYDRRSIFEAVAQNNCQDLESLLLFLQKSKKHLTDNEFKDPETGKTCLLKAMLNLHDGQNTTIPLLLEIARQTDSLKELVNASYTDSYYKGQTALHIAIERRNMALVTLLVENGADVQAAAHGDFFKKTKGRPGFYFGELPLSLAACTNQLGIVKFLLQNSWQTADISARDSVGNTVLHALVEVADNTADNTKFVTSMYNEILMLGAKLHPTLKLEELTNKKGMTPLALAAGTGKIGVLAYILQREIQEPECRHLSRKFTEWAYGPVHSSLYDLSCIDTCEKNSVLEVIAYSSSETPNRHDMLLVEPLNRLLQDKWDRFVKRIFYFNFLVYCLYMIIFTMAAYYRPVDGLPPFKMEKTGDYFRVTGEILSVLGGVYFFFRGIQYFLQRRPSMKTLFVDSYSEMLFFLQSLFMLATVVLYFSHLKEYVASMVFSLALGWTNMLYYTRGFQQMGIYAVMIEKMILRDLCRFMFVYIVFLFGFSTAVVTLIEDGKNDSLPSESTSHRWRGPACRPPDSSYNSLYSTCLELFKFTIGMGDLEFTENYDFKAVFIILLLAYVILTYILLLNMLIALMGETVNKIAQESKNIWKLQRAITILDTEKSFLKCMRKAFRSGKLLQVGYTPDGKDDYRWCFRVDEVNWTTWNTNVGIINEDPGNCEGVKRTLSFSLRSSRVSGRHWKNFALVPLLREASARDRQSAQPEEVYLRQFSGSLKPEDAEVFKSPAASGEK
Description: This Example illustrates the preparation of VR1-transfected cells and membrane preparations for use in binding assays (Example 5) and functional assays (Example 6).
A cDNA encoding full length human capsaicin receptor (SEQ ID NO: 1, 2 or 3 of U.S. Pat. No. 6,482,611) was subcloned in the plasmid pBK-CMV (Stratagene, La Jolla, Calif.) for recombinant expression in mammalian cells.
Human embryonic kidney (HEK293) cells were transfected with the pBK-CMV expression construct encoding the full length human capsaicin receptor using standard methods. The transfected cells were selected for two weeks in media containing G418 ([…]) to obtain a pool of stably transfected cells. Independent clones were isolated from this pool by limiting dilution to obtain clonal stable cell lines for use in subsequent experiments.
For radioligand binding experiments, cells were seeded in T175 cell culture flasks in media without antibiotics and grown to approximately 90% confluency. The flasks were then washed with PBS and harvested in PBS containing 5 mM EDTA. The cells were pelleted by gentle centrifugation and stored at −80° C. until assayed.
Previously frozen cells were disrupted with the aid of a tissue homogenizer in ice-cold HEPES homogenization buffer (5mM KCl 5, 5.8 mM NaCl, 0.75 mM CaCl2, 2 mM MgCl2, 320 mM sucrose, and 10 mM HEPES pH 7.4). Tissue homogenates were first centrifuged for 10 minutes at 1000×g (4° C.) to remove the nuclear fraction and debris, and then the supernatant from the first centrifugation is further centrifuged for 30 minutes at 35,000×g (4° C.) to obtain a partially purified membrane fraction. Membranes were resuspended in the HEPES homogenization buffer prior to the assay. An aliquot of this membrane homogenate is used to determine protein concentration via the Bradford method (BIO-RAD Protein Assay Kit, #500-0001, BIO-RAD, Hercules, Calif.).
This Example illustrates a representative assay of capsaicin receptor binding that may be used to determine the binding affinity of compounds for the capsaicin (VR1) receptor.
Binding studies with [^3H] Resiniferatoxin (RTX) are carried out essentially as described by Szallasi and Blumberg (1992) J. Pharmacol. Exp. Ter. 262: 883-888. In this protocol, non-specific RTX binding is reduced by adding bovine alpha, acid glycoprotein (100 μg per tube) after the binding reaction has been terminated.
[^3H] RTX (37 Ci/mmol) is synthesized by and obtained from the Chemical Synthesis and Analysis Laboratory, National Cancer Institute-Frederick Cancer Research and Development Center, Frederick, Md. [^3H] RTX may also be obtained from commercial vendors (e.g., Amersham Pharmacia Biotech, Inc.; Piscataway, N.J.).
The membrane homogenate of Example 4 is centrifuged as before and resuspended to a protein concentration of 333 μg/ml in homogenization buffer. Binding assay mixtures are set up on ice and contain [^3H]JRTX (specific activity 2200 mCi/ml), 2 μl non-radioactive test compound, 0.25 mg/ml bovine serum albumin (Cohn fraction V), and 5×10^4−1×10^5 VR1-transfected cells. The final volume is adjusted to 500 μl (for competition binding assays) or 1,000 μl (for saturation binding assays) with the ice-cold HEPES homogenization buffer solution (pH 7.4) described above. Non-specific binding is defined as that occurring in the presence of 1 μM non-radioactive RTX (Alexis Corp.; San Diego, Calif.). For saturation binding, [^3H]RTX is added in the concentration range of […], using 1 to 2 dilutions. Typically 11 concentration points are collected per saturation binding curve.
Competition binding assays are performed in the presence of 60 pM [^3H]RTX and various concentrations of test compound. The binding reactions are initiated by transferring the assay mixtures into a 37° C. water bath and are terminated following a 60 minute incubation period by cooling the tubes on ice.

**Q.** For `COc1cccc(NC(=O)c2ccc(-c3cccc(F)c3)nc2)c1` [Compound 126, 6-(3-Fluoro-phenyl)-N-(3-methoxy-phenyl)-nicotinamide], which Ki is on record?
**A.** Its Ki is less than 1000 nM.

**Q.** For `CC(C)c1ccc(NC(=O)c2ccc(-c3cccc(F)c3)nc2)cc1` [Compound 127, 6-(3-Fluoro-phenyl)-N-(4-isopropyl-phenyl)-nicotinamide], which Ki is on record?
**A.** Its Ki is less than 1000 nM.

**Q.** `O=C(Nc1ccc2c(c1)CCC2)c1ccc(-c2cccc(F)c2)nc1` [Compound 129, 6-(3-Fluoro-phenyl)-N-indan-5-yl-nicotinamide] was tested. Which Ki did it give?
**A.** Its Ki is less than 1000 nM.

**Q.** With `Cc1nc2cc(NC(=O)c3ccc(-c4cccc(C(C)C)c4)nc3)ccc2s1` [Compound 130, 6-(3-Isopropyl-phenyl)-N-(2-methyl-benzothiazol-5-yl)-nicotinamide] as the compound, how does the Ki read?
**A.** The Ki was less than 1000 nM.

**Q.** For `COc1cccc(NC(=O)c2ccc(-c3cccc(C(C)C)c3)nc2)c1` [Compound 131, 6-(3-Isopropyl-phenyl)-N-(3-methoxy-phenyl)-nicotinamide], which Ki is on record?
**A.** Its Ki is less than 1000 nM.

**Q.** For `O=C(Nc1ccc(C(F)(F)F)cc1)c1ccc(-c2cccc(OC(F)(F)F)c2)nc1` [Compound 135, N-(4-Trifluoromethyl-phenyl)-6-(3-Trifluoromethoxy-phenyl)-nicotinamide], which Ki is on record?
**A.** Its Ki is less than 1000 nM.

**Q.** How did the Ki turn out when `CCCCc1ccc(-c2ccc(C(=O)Nc3cccc(OC)c3)cn2)cc1` [Compound 137, 6-(4-Butyl-phenyl)-N-(3-methoxy-phenyl)-nicotinamide] was run?
**A.** The Ki was less than 1000 nM.

**Q.** `COc1cccc(NC(=O)c2ccc(-c3ccc(C(C)C)cc3)nc2)c1` [Compound 147, 6-(4-Isopropyl-phenyl)-N-(3-methoxy-phenyl)-nicotinamide] was tested. Which Ki did it give?
**A.** Its Ki is less than 1000 nM.

**Q.** With `CCCc1ccc(NC(=O)c2ccc(-c3cc(Cl)ccc3OC)nc2)cc1` [Compound 157, 6-(5-Chloro-2-methoxy-phenyl)-N-(4-propyl-phenyl)-nicotinamide] as the compound, how does the Ki read?
**A.** Its Ki is less than 1000 nM.

**Q.** Which Ki does the source give for `Cc1nc(-c2ncccc2C(F)(F)F)ccc1C(=O)Nc1ccc(C(F)(F)F)cc1` [Compound 181, 6-Methyl-3′-trifluoromethyl-[2,2′]bipyridinyl-5-carboxylic acid (4-trifluoromethyl-phenyl)-amide] here?
**A.** Its Ki is less than 1000 nM.

**Q.** For `Cc1ccccc1-c1ccc(C(=O)Nc2ccc(C(F)(F)F)cc2)cn1` [Compound 185, 6-o-Tolyl-N-(4-trifluoromethyl-phenyl)-nicotinamide], which Ki is on record?
**A.** Its Ki is less than 1000 nM.

**Q.** Which Ki does the source give for `COc1cc(NC(=O)c2ccc(-c3ccccc3)cc2)ccc1Cl` [Compound 189, Biphenyl-4-carboxylic acid (4-chloro-3-methoxy-phenyl)-amide] here?
**A.** Its Ki is less than 1000 nM.

**Q.** How did the Ki turn out when `O=C(Nc1ccc2c(c1)OCCO2)c1ccc(-c2ccccc2F)nc1` [Compound 192, N-(2,3-Dihydro-benzo[1,4]dioxin-6-yl)-6-(2-fluoro-phenyl)-nicotinamide] was run?
**A.** Its Ki is less than 1000 nM.

**Q.** For `CCOc1cccc(-c2ccc(C(=O)Nc3ccc4c(c3)OCCO4)cn2)c1` [Compound 194, N-(2,3-Dihydro-benzo[1,4]dioxin-6-yl)-6-(3-ethoxy-phenyl)-nicotinamide], which Ki is on record?
**A.** The Ki was less than 1000 nM.

**Q.** With `CC(C)c1cccc(-c2ccc(C(=O)Nc3ccc4c(c3)OCCO4)cn2)c1` [Compound 196, N-(2,3-Dihydro-benzo[1,4]dioxin-6-yl)-6-(3-isopropyl-phenyl)-nicotinamide] as the compound, how does the Ki read?
**A.** The Ki was less than 1000 nM.

**Q.** With `Cc1cccc(-c2ccc(C(=O)Nc3ccc4c(c3)OCCO4)cn2)c1` [Compound 202, N-(2,3-Dihydro-benzo[1,4]dioxin-6-yl)-6-m-tolyl-nicotinamide] as the compound, how does the Ki read?
**A.** Its Ki is less than 1000 nM.

**Q.** With `Cc1nc2cc(NC(=O)c3ccc(-c4cccc(OC(F)(F)F)c4)nc3)ccc2s1` [Compound 207, N-(2-Methyl-benzothiazol-5-yl)-6-(3-trifluoromethoxy-phenyl)-nicotinamide] as the compound, how does the Ki read?
**A.** Its Ki is less than 1000 nM.

**Q.** `Cc1cccc(-c2ccc(C(=O)Nc3ccc4sc(C)nc4c3)cn2)c1` [Compound 208, N-(2-Methyl-benzothiazol-5-yl)-6-m-tolyl-nicotinamide] was tested. Which Ki did it give?
**A.** The Ki was less than 1000 nM.

**Q.** How did the Ki turn out when `Cc1nc2cc(NC(=O)c3ccc(-c4ccccc4)nc3)ccc2s1` [Compound 209, N-(2-Methyl-benzothiazol-5-yl)-6-phenyl-nicotinamide] was run?
**A.** The Ki was less than 1000 nM.

**Q.** Which Ki does the source give for `O=C(Nc1ccc(F)c(F)c1)c1ccc(-c2ncccc2F)cc1` [Compound 214, N-(3,4-Difluoro-phenyl)-4-(3-fluoro-pyridin-2-yl)-benzamide] here?
**A.** The Ki was less than 1000 nM.

**Q.** `O=C(Nc1ccc2c(c1)OCCCO2)c1ccc(-c2ccccc2F)nc1` [Compound 218, N-(3,4-Dihydro-2H-benzo[b][1,4]dioxepin-7-yl)-6-(2-fluoro-phenyl)-nicotinamide] was tested. Which Ki did it give?
**A.** The Ki was less than 1000 nM.

**Q.** `O=C(Nc1ccc2c(c1)OCCCO2)c1ccc(-c2cccc(F)c2)nc1` [Compound 220, N-(3,4-Dihydro-2H-benzo[b][1,4]dioxepin-7-yl)-6-(3-fluoro-phenyl)-nicotinamide] was tested. Which Ki did it give?
**A.** The Ki was less than 1000 nM.

**Q.** `CC(C)c1cccc(-c2ccc(C(=O)Nc3ccc4c(c3)OCCCO4)cn2)c1` [Compound 221, N-(3,4-Dihydro-2H-benzo[b][1,4]dioxepin-7-yl)-6-(3-isopropyl-phenyl)-nicotinamide] was tested. Which Ki did it give?
**A.** Its Ki is less than 1000 nM.

**Q.** Which Ki does the source give for `O=C(Nc1ccc2c(c1)OCCCO2)c1ccc(-c2cccc(OC(F)(F)F)c2)nc1` [Compound 223, N-(3,4-Dihydro-2H-benzo[b][1,4]dioxepin-7-yl)-6-(3-trifluoromethoxy-phenyl)-nicotinamide] here?
**A.** Its Ki is less than 1000 nM.

**Q.** Which Ki does the source give for `O=C(Nc1ccc2c(c1)OCCCO2)c1ccc(-c2ccccc2)nc1` [Compound 230, N-(3,4-Dihydro-2H-benzo[b][1,4]dioxepin-7-yl)-6-phenyl-nicotinamide] here?
**A.** Its Ki is less than 1000 nM.

**Q.** For `COc1ccc(NC(=O)c2ccc(-c3ccccc3F)nc2)cc1OC` [Compound 232, N-(3,4-Dimethoxy-phenyl)-6-(2-fluoro-phenyl)-nicotinamide], which Ki is on record?
**A.** The Ki was less than 1000 nM.

**Q.** With `Cc1cc(C)cc(-c2ccc(C(=O)Nc3ccc(C)c(C)c3)cn2)c1` [Compound 237, N-(3,4-Dimethyl-phenyl)-6-(3,5-dimethyl-phenyl)-nicotinamide] as the compound, how does the Ki read?
**A.** Its Ki is less than 1000 nM.

**Q.** `CCOc1cccc(-c2ccc(C(=O)Nc3ccc(C)c(C)c3)cn2)c1` [Compound 238, N-(3,4-Dimethyl-phenyl)-6-(3-ethoxyl-phenyl)-nicotinamide] was tested. Which Ki did it give?
**A.** The Ki was less than 1000 nM.

**Q.** Which Ki does the source give for `Cc1ccc(NC(=O)c2ccc(-c3cccc(F)c3)nc2)cc1C` [Compound 239, N-(3,4-Dimethyl-phenyl)-6-(3-fluoro-phenyl)-nicotinamide] here?
**A.** Its Ki is less than 1000 nM.

**Q.** `COc1cccc(-c2ccc(C(=O)Nc3ccc(C)c(C)c3)cn2)c1` [Compound 241, N-(3,4-Dimethyl-phenyl)-6-(3-methoxy-phenyl)-nicotinamide] was tested. Which Ki did it give?
**A.** Its Ki is less than 1000 nM.

**Q.** How did the Ki turn out when `Cc1ccc(NC(=O)c2ccc(-c3cccc(OC(F)(F)F)c3)nc2)cc1C` [Compound 242, N-(3,4-Dimethyl-phenyl)-6-(3-trifluoromethoxy-phenyl)-nicotinamide] was run?
**A.** Its Ki is less than 1000 nM.

**Q.** With `Cc1cccc(-c2ccc(C(=O)Nc3ccc(C)c(C)c3)cn2)c1` [Compound 247, N-(3,4-Dimethyl-phenyl)-6-m-tolyl-nicotinamide] as the compound, how does the Ki read?
**A.** The Ki was less than 1000 nM.

**Q.** Which Ki does the source give for `Cc1ccc(NC(=O)c2ccc(-c3ccccc3C)nc2)cc1C` [Compound 248, N-(3,4-Dimethyl-phenyl)-6-o-tolyl-nicotinamide] here?
**A.** Its Ki is less than 1000 nM.

**Q.** For `Cc1ccc(NC(=O)c2ccc(-c3ccccc3)nc2)cc1C` [Compound 249, N-(3,4-Dimethyl-phenyl)-6-phenyl-nicotinamide], which Ki is on record?
**A.** The Ki was less than 1000 nM.

**Q.** `Cc1ccc(NC(=O)c2ccc(-c3cccc(F)c3)nc2)cc1F` [Compound 266, N-(3-Fluoro-4-methyl-phenyl)-6-(3-fluoro-phenyl)-nicotinamide] was tested. Which Ki did it give?
**A.** Its Ki is less than 1000 nM.

**Q.** How did the Ki turn out when `Cc1ccc(NC(=O)c2ccc(-c3cccc(C(C)C)c3)nc2)cc1F` [Compound 267, N-(3-Fluoro-4-methyl-phenyl)-6-(3-isopropyl-phenyl)-nicotinamide] was run?
**A.** The Ki was less than 1000 nM.
